# Measured values reported in BindingDB's records for doi:10.7270/Q2PR7TCX (The Scripps Research Institute Molecular Screening Center, 2007).
# Molecular target: Steroidogenic factor 1 (Homo sapiens, UniProt Q13285)
# Test: SF-1 inhibitors in Gal4 reporter counter-screen, dose response, counter-screen for RORA inhibitor project, cell-based, CHO-K1, Gal4-SF-1 LBD, luciferase luminescence (AID 611)
# Conditions: not given
# Sequence of Steroidogenic factor 1 (Q13285 whole entry, the tested form may be a part): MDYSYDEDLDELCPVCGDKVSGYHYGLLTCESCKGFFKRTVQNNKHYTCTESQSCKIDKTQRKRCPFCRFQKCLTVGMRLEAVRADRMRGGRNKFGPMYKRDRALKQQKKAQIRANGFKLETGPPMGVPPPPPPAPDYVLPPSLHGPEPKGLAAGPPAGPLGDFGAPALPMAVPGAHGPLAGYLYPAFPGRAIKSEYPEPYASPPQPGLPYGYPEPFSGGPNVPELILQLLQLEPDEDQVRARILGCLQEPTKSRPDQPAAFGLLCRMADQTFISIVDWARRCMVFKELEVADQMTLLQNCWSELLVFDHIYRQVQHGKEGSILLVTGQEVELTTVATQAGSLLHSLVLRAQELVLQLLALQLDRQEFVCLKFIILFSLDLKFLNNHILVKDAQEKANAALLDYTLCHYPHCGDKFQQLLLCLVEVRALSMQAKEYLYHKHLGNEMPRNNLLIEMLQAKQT
row,Compound,IC50 [µM]
1,O=C(CC=Nc1ccccn1)c1ccc(Cl)cc1 [(Z)-1-(4-chlorophenyl)-3-(2-pyridinylamino)-2-propen-1-one],4.88
2,"O=S(=O)(C/C(=C/CO)S(=O)(=O)c1ccccc1)c1ccccc1 [(Z)-3,4-bis(benzenesulfonyl)but-2-en-1-ol]",4.03
3,"O=C(CC=Nc1ccc2c(c1)OCO2)c1ccccn1 [(Z)-3-(1,3-benzodioxol-5-ylamino)-1-(2-pyridinyl)-2-propen-1-one]",1.5
4,CCOC(=O)c1[n-]c2ccccc2c1[N+]#N [(Z)-(3-diazonio-2-indolylidene)-ethoxymethanolate],13.2
5,COc1ccc(C2=Nn3c(nnc3-c3ccccc3OC)SC2)cc1OC [BMCL181297 Compound 5A],> 3.67
6,COc1cccc2c1C(=O)c1c(O)c3c(c(O)c1C2=O)C[C@@](O)(C(=O)CO)C[C@@H]3O[C@H]1C[C@H](N)[C@H](O)[C@H](C)O1 [MLS000028393],1.18
7,CCOc1cc(C(=O)CSc2nnc(CNc3ccc(Cl)cc3)o2)ccc1NC(=O)CC [MLS000032332],7.64
8,Nc1ccc(-c2nc3c(Cl)cc(N)cc3[nH]2)cc1 [MLS000034140],5.43
9,Cc1cccc(NC(=O)CSc2nnc(-c3cc(C)n(-c4ccccc4)c3C)o2)c1C [MLS000036049],3.29
10,COc1cccc(C(=O)c2sc(NC(C)C)nc2N)c1 [MLS000036929],5.26
11,CC(=O)c1sc(NC(=O)C2(F)C(F)(F)C(F)(F)C(F)(F)C(F)(F)C2(F)F)nc1C [MLS000040071],6.77
12,COc1ccc(CCNc2ncnc3c2oc2ccccc23)cc1OC [MLS000041708],2.27
13,COc1ccc(C=Nn2nnc3ccccc32)cc1 [MLS000043825],4
14,CS(=O)(=O)c1nc(-c2cccs2)cc(C(F)(F)F)n1 [MLS000044645],6.41
15,Cc1ccc(NC(=O)Cc2nn(C)c(=O)c3ccccc23)cc1F [MLS000047015],3.9
16,Cn1nc(CC(=O)Nc2ccc3c(c2)OCCO3)c2ccccc2c1=O [MLS000047020],6.3
17,CCn1c2ccccc2c2cc(NC(=O)CSc3nnnn3-c3ccccc3)ccc21 [MLS000051054],6.74
18,COc1cc2nc(CN3CC=C(c4ccccc4)CC3)nc(O)c2cc1OC [MLS000053305],2.36
19,O=C(NC1=NCCS1)C1COc2ccccc2O1 (stereo not drawn) [MLS000056062],4.65

row,Compound,IC50 [µM]
1,CC(=O)Nc1ccccc1OCC(=O)c1cc(C)n(Cc2cccs2)c1C [MLS000056239],0.841
2,COc1ccc(CCNc2nnc(Sc3nnnn3-c3ccccc3)s2)cc1OC [MLS000056567],7.21
3,CC(=O)Nc1ccc(SCC(=O)c2cc(C)n(Cc3cccs3)c2C)cc1 [MLS000058142],4.41
4,Cc1cc(C)n(-c2ccc3cccc(NS(C)(=O)=O)c3n2)n1 [MLS000062301],4.32
5,O=C(Nc1ccc(N2CCOCC2)cc1)c1cnsn1 [MLS000063695],6.57
6,CC1CCc2nc(NC(=O)c3ccco3)sc2C1 (stereo not drawn) [MLS000063711],3.29
7,Cc1cc(NC(=O)c2ccc3c(c2)OCCO3)no1 [MLS000064124],9.29
8,CCN(C(=O)c1ccc(C(C)(C)C)cc1)c1nnc(Cn2nnc3ccccc32)s1 [MLS000072751],7.71
9,O=C(CSc1nnnn1-c1ccccc1)Nc1nsc(-c2ccc(Cl)cc2)n1 [MLS000085595],5.78
10,COc1ccc(-c2nc(CSCC(=O)NCc3ccco3)c(C)o2)cc1 [MLS000089353],7.05
11,COCCNC(=O)CSCc1nc(-c2ccc(SC)cc2)oc1C [MLS000089367],0.656
12,CN(C)c1ccc(-c2nc3ccccc3n2C)cc1 [MLS000089904],6.81
13,O=C(NCc1ccco1)c1ccc2nc3sc4c(c3c(=O)n2c1)CCCC4 [MLS000091875],> 4.06
14,O=c1cc(N2CCN(c3cccc(Cl)c3)CC2)[nH]c(=O)n1C1CCCCC1 [MLS000094380],0.44
15,COc1ccc(C(=O)Nn2c(SCC(=O)NCc3ccco3)nc3ccccc3c2=O)cc1 [MLS000097349],5.3
16,O=C(NCCOc1ccccc1)c1ccc2c(c1)OCO2 [MLS000100028],9.86
17,O=C(Nc1nc2cc3c(cc2s1)OCO3)C1=COCCO1 [MLS000103798],4.16
18,CN(C)c1ccc(NC(=S)c2ccccn2)cc1 [MLS000111989],3.04
19,Cc1cc(C=Nn2cnnc2)c(C)n1-c1ccc(OCc2ccc(F)cc2)cc1 [MLS000112167],3.4

row,Compound,IC50 [µM]
1,Cc1cc(C=Nn2cnnc2)c(C)n1-c1ccc(OCc2ccccc2F)cc1 [MLS000112180],7.58
2,Cc1ccc(-c2nnc(SCC(=O)Nc3ccccc3F)o2)cc1 [MLS000114725],9.9
3,COc1ccc(CNC(=O)c2cc3c(C)nc4ccccc4c3o2)c(OC)c1 [MLS000118441],> 3.67
4,"O=C(Nc1nc2ccccc2[nH]1)c1ccccc1F [N-1,3-dihydro-2H-benzimidazol-2-ylidene-2-fluorobenzamide]",1.91
5,"O=C(Nc1nc2ccccc2[nH]1)c1ccc(F)cc1 [N-1,3-dihydro-2H-benzimidazol-2-ylidene-4-fluorobenzamide]",> 11
6,"N#Cc1c(NC(=O)CSc2nc[nH]n2)sc2c1CCCCC2 [N-(3-cyano-5,6,7,8-tetrahydro-4H-cyclohepta[b]thien-2-yl)-2-(1H-1,2,4-triazol-3-ylthio)acetamide]",0.237
7,"Cc1ccc(-c2csc(N3CCC(NS(=O)(=O)c4ccc5c(c4)OCCO5)CC3)n2)cc1 [N-[1-[4-(4-methylphenyl)-1,3-thiazol-2-yl]piperidin-4-yl]-2,3-dihydro-1,4-benzodioxine-6-sulfonamide]",5.97
8,c1ccc(CNc2ncnc3ccccc23)cc1 [N-benzylquinazolin-4-amine],21.9
9,c1ccc2nc(-c3nc4ccccc4[nH]3)ccc2c1 [SMR000008748],7.19
10,O=S1(=O)C=C(Sc2nc3cc(Cl)ccc3o2)c2ccccc21 [SMR000019512],5.99
11,CCCCS(=O)(=O)/C=C\C=C/S(=O)(=O)CCCC [SMR000020833],1.64
12,CC(=O)c1c(C)[nH]c(C(=O)Nc2ccc(C)cn2)c1C [SMR000026816],4.92
13,c1ccc2c(c1)CCN(c1ncnc3c1[nH]c1ccccc13)C2 [SMR000039631],2.99
14,c1ccc(-c2nc(N3CCCCCC3)c3ccccc3n2)nc1 [SMR000046752],4.13
15,COCCn1c(C)cc(C(=O)COC(=O)c2[nH]nc3ccccc23)c1C [SMR000068187],8.16
16,COc1cc(NS(=O)(=O)c2ccc(C)cc2)c2ncccc2c1 [SMR000071147],5.2
17,"COC(=O)/C(=C1/Oc2cc(C)oc(=O)c2S1)C(F)(F)F [methyl (2E)-3,3,3-tris(fluoranyl)-2-(6-methyl-4-oxidanylidene-[1,3]oxathiolo[4,5-c]pyran-2-ylidene)propanoate]",4.32
18,"CCCCCOC(=O)c1[nH]c2c(c1C)C(=O)CC(c1ccco1)C2 (stereo not drawn) [pentyl 6-(furan-2-yl)-3-methyl-4-oxidanylidene-1,5,6,7-tetrahydroindole-2-carboxylate]",1.87

# Same assay, conditions: inactive by the depositor's call
row,Compound,IC50 [µM]
1,Cc1ccccc1OCC(=O)Nc1ccc(N2CCN(C(=O)C(C)C)CC2)c(Cl)c1 [MLS000034491],14
2,CS(=O)(=O)c1nc(-c2ccco2)cc(C(F)(F)F)n1 [MLS000044646],10.8
3,Cc1noc(C)c1S(=O)(=O)Nc1ccc(C(=O)N2CCN(c3ccc(Cl)cc3)CC2)cc1 [MLS000045033],21.1
4,Cc1ccc(F)cc1NC(=O)Cc1nn(C)c(=O)c2ccccc12 [MLS000047013],12.2
5,N#C/C(=C/c1ccc(N2CCCCCC2)o1)c1ccc(F)cc1 [MLS000051438],18.5
6,CCOC(=O)c1c(C)[nH]c(C(=O)C(C)OC(=O)c2cccc(OCc3c(C)noc3C)c2)c1C (stereo not drawn) [MLS000054923],10.6
7,Cc1cc(C)nc(SCC(=O)Nc2ccc(N3CCOCC3)c(Cl)c2)n1 [MLS000066583],13.3
8,c1ccc(CN2CCN(c3ncnc4c3[nH]c3ccccc34)CC2)cc1 [MLS000078384],11.3
9,Fc1ccc2[nH]c3c(N4CCSCC4)ncnc3c2c1 [MLS000078401],10.4
10,CCOc1cc(C(=O)N2CCc3cc(OC)c(OC)cc3C2)ccc1OC(F)F [MLS000083614],10.6
11,CC1(C)COCN1S(=O)(=O)c1ccc(C(=O)Nc2nnc(-c3ccc(Cl)s3)o2)cc1 [MLS000086346],12.2
12,CCCOC(=O)c1[nH]c2c(c1C)C(=O)CC(c1cc(OC)c(OC)c(OC)c1)C2 (stereo not drawn) [MLS000116504],11.5
